Activity calls are given as the source filed them. No cut-off for these calls is given here.
Columns and labels:
Dipeptidyl peptidase 4 [1] = molecular target: T1, Dipeptidyl peptidase 4 (Homo sapiens, UniProt P27487); assay: Inhibition of DPP4 in human plasma using GP-BAN as fluorescent substrate preincubated for 5 mins followed by substrate addition and measured for 20 mins by microplate reader analysis; type: cell-free
Target sequence in this assay (P27487 whole entry): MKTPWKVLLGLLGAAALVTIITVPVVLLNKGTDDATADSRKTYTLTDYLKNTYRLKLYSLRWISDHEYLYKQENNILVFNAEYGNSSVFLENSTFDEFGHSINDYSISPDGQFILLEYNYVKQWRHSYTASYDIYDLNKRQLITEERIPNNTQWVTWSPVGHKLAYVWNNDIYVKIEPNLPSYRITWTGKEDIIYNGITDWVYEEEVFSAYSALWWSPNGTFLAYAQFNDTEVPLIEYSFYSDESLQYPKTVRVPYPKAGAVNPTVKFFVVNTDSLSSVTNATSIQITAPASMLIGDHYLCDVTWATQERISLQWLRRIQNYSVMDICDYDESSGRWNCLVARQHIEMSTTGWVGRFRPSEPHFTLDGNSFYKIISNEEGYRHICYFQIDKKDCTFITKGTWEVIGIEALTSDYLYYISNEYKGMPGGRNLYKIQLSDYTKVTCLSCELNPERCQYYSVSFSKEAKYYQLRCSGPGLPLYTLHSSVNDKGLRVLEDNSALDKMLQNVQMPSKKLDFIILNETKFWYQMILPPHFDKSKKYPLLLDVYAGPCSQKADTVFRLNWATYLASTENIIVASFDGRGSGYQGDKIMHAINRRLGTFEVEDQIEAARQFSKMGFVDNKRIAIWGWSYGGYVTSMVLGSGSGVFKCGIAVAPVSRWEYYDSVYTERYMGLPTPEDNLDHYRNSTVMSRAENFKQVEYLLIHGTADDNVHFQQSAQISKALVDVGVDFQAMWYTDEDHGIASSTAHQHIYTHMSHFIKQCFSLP

Dipeptidyl peptidase 4 [2] = molecular target: T1, Dipeptidyl peptidase 4; assay: Mixed type inhibition of DPP4 (unknown origin) using varying concentrations of GP-BAN as substrate assessed as inhibition constant
Target sequence in this assay (P27487 whole entry): as above

[3] = Metabolic stability in human liver microsomes assessed as UDPGA-dependent drug metabolism by measuring half life at 10 uM preincubated for 3 mins followed by UDPGA addition measured for 90 mins by LC-UV analysis; type: ADME, Microsome; conditions: time 93 min
RAW264.7 [4] = assay: Cytotoxicity against mouse RAW264.7 cells assessed as cell growth inhibition incubated for 48 hrs by CCK-8 assay; type: toxicity, cell-based; conditions: raw264.7, 48 h
RPTEC = assay: Cytotoxicity against human RPTEC cells assessed as cell growth inhibition incubated for 48 hrs by CCK-8 assay; type: toxicity, cell-based
Dipeptidyl peptidase 4 [5] = molecular target: T1, Dipeptidyl peptidase 4; assay: Inhibition of DPP4 in human HepG2 cells using GP-BAN as substrate assessed reduction of reduction in substrate hydrolysis at 20 uM incubated for 30 mins by Hoechst 33342 staining based assay; type: cell-based
Target sequence in this assay (P27487 whole entry, looked up): as the sequence (P27487 whole entry) above

Dipeptidyl peptidase 4 [6] = molecular target: T1, Dipeptidyl peptidase 4; assay: Inhibition of DPP4 in human Caco-2 cells using GP-BAN as substrate assessed reduction of reduction in substrate hydrolysis at 20 uM incubated for 30 mins by Hoechst 33342 staining based assay; type: cell-based
Target sequence in this assay (P27487 whole entry, looked up): as the sequence (P27487 whole entry) above

RAW264.7 [7] = assay: Anti-inflammatory activity in mouse RAW264.7 cells assessed as downregulation of LPS-stimulated TNF-alpha mRNA expression at 20 to 100 uM preincubated for 4 hrs followed by LPS-stimulation for 24 hrs by qPCR analysis; type: functional, cell-based; conditions: dose 20-100 µM, time 28.0 hrs
RAW264.7 [8] = assay: Anti-inflammatory activity in mouse RAW264.7 cells assessed as downregulation of LPS-stimulated IL-1beta mRNA expression at 20 to 100 uM preincubated for 4 hrs followed by LPS-stimulation for 24 hrs by qPCR analysis; type: functional, cell-based; conditions: dose 20-100 µM, time 28.0 hrs
RAW264.7 [9] = assay: Anti-inflammatory activity in mouse RAW264.7 cells assessed as downregulation of LPS-stimulated IL-6 mRNA expression at 20 to 100 uM preincubated for 4 hrs followed by LPS-stimulation for 24 hrs by qPCR analysis; type: functional, cell-based; conditions: dose 20-100 µM, time 28.0 hrs
[10] = Stability of the compound in artificial gastric fluid at 10 uM incubated for 90 mins by LC-UV analysis; type: ADME; conditions: simulated gi fluid, 1.5 h
[11] = Stability of the compound in artificial intestinal fluid at 10 uM incubated for 90 mins by LC-UV analysis; type: ADME; conditions: simulated gi fluid, 1.5 h
[12] = Metabolic stability in human liver microsomes assessed as […] drug metabolism by measuring half life at 10 uM preincubated for 3 mins followed by NADPH addition measured for 90 mins by LC-UV analysis; type: ADME, Microsome; conditions: time 93 min
Prolyl endopeptidase FAP = molecular target: T2, Prolyl endopeptidase FAP (Homo sapiens, UniProt Q12884); assay: Inhibition of recombinant human FAP using Z-GP-AMC as substrate preincubated for 5 mins followed by substrate addition and measured after 20 mins by microplate reader analysis
T2 sequence (Q12884 whole entry): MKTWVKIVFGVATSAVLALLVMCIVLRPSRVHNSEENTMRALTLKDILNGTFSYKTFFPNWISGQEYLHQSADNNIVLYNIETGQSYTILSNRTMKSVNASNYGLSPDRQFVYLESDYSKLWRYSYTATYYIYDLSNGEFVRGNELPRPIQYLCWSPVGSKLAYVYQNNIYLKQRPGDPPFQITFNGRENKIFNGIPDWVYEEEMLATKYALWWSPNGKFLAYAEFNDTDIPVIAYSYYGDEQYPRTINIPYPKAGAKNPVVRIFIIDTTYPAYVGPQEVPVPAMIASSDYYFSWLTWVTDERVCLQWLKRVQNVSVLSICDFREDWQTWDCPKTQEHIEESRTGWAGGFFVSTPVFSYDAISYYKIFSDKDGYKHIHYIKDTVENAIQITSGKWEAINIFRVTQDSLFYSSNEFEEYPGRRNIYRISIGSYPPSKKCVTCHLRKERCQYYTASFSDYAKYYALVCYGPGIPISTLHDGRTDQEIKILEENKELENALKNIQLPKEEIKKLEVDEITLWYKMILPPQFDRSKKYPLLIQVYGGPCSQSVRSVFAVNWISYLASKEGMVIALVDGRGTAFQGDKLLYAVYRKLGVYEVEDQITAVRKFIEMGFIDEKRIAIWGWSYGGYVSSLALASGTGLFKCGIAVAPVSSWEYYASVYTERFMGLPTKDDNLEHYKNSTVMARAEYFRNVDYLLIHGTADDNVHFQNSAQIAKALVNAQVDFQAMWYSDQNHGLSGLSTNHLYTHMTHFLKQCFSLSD

Prothrombin = Prothrombin (Homo sapiens, UniProt P00734); assay: Inhibition of recombinant thrombin in human plasma using […] as substrate preincubated for 3 mins followed by substrate addition and measured for 30 mins by microplate reader analysis; type: cell-free
Dipeptidyl peptidase 9 = Dipeptidyl peptidase 9 (Homo sapiens, UniProt Q86TI2); assay: Inhibition of recombinant human DPP9 using Z-GP-AMC as substrate preincubated for 5 mins followed by substrate addition and measured after 20 mins by microplate reader analysis
Dipeptidyl peptidase 9, sequence (Q86TI2 whole entry): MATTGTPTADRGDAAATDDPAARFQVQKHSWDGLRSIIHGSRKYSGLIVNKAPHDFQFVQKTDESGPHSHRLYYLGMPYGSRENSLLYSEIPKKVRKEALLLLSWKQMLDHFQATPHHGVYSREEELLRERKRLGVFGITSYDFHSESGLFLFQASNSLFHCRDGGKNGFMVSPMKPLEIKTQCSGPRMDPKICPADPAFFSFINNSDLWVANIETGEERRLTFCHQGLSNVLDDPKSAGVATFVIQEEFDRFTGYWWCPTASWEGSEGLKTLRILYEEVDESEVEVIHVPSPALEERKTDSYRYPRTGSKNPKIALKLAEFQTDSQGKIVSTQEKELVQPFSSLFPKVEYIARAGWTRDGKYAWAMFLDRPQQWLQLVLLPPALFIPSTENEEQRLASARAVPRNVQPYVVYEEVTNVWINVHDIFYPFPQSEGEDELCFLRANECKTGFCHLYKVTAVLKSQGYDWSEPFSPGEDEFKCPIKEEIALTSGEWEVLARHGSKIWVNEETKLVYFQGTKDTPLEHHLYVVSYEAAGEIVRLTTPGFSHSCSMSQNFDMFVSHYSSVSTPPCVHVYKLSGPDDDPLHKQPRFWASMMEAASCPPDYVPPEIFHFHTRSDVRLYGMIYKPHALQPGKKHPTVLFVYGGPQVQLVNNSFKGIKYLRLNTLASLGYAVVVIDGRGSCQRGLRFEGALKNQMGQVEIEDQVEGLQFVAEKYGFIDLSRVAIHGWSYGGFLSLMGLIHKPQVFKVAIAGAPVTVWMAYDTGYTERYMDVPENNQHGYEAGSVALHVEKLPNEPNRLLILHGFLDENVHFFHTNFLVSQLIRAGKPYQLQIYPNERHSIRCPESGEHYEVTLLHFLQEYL

Prolyl endopeptidase = molecular target: T3, Prolyl endopeptidase (Homo sapiens, UniProt P48147); assay: Inhibition of recombinant human PREP using Z-GP-AMC as substrate preincubated for 5 mins followed by substrate addition and measured after 20 mins by microplate reader analysis
T3 sequence (P48147 whole entry): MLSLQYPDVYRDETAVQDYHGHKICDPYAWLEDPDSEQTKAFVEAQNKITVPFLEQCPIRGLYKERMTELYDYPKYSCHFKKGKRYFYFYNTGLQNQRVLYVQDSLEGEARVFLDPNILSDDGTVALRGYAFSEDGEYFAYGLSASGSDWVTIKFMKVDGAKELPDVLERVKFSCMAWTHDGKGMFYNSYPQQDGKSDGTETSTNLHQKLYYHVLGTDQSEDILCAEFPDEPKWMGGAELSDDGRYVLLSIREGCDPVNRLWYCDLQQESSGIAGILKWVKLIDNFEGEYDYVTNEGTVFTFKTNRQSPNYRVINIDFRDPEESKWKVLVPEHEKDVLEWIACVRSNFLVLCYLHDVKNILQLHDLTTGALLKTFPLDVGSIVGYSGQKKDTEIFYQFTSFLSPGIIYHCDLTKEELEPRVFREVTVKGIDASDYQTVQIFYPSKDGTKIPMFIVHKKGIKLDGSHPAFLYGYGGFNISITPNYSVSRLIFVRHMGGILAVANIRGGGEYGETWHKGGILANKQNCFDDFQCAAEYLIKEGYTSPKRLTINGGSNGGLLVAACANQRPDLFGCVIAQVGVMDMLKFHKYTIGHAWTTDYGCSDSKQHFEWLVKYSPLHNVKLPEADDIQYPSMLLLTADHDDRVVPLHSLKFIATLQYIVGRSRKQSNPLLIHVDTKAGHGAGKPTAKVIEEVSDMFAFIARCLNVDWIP

Dipeptidyl peptidase 4 [13] = molecular target: T1, Dipeptidyl peptidase 4; assay: Inhibition of recombinant human DPP4 using GP-BAN as substrate preincubated for 5 mins followed by substrate addition and measured after 20 mins by microplate reader analysis
Target sequence in this assay (P27487 whole entry): as the sequence (P27487 whole entry) above

Homo sapiens [14] = organism: Homo sapiens; assay: Selectivity index, ratio of IC50 for inhibition of recombinant human DPP9 to IC50 for inhibition of recombinant human DPP4
Homo sapiens [15] = organism: Homo sapiens; assay: Selectivity index, ratio of IC50 for inhibition of recombinant human PREP to IC50 for inhibition of recombinant human DPP4

## COc1cc(O)c(Cl)cc1/C=C/C(=O)c1ccc(O)cc1
Dipeptidyl peptidase 4 [1]
  IC50: 7.16 µM
Dipeptidyl peptidase 4 [2]
  Ki: 6.57 µM
[3]
  half-life at 10 µM: 7.1 min
RAW264.7 [4]
  Activity: Non-Toxic
RPTEC
  Activity: Non-Toxic
Dipeptidyl peptidase 4 [5]
  inhibition: Active
Dipeptidyl peptidase 4 [6]
  inhibition: Active
RAW264.7 [7]
  Activity: Active
RAW264.7 [8]
  Activity: Active
RAW264.7 [9]
  Activity: Active

## COc1cc(O)c(Cl)cc1/C=C/C(=O)c1ccc(Br)cc1
Dipeptidyl peptidase 4 [1]
  IC50: 9.87 µM
Dipeptidyl peptidase 4 [2]
  Ki: 3.18 µM

## COc1cc(O)c(Cl)cc1/C=C/C(=O)c1ccc(O)c([N+](=O)[O-])c1
Dipeptidyl peptidase 4 [1]
  IC50: 4.27 µM
Dipeptidyl peptidase 4 [2]
  Ki: 0.96 µM
[10]
  Stability: Stable
[11]
  Stability: Stable
[3]
  half-life at 10 µM: 25.4 min
[12]
  half-life at 10 µM: 197 min
Prolyl endopeptidase FAP
  IC50: > 100 µM
Prothrombin
  IC50: > 100 µM
Dipeptidyl peptidase 9
  IC50: 86.3 µM
Prolyl endopeptidase
  IC50: 62.1 µM
Dipeptidyl peptidase 4 [13]
  IC50: 4.87 µM
RAW264.7 [4]
  Activity: Non-Toxic
RPTEC
  Activity: Non-Toxic
Dipeptidyl peptidase 4 [5]
  inhibition: Active
Dipeptidyl peptidase 4 [6]
  inhibition: Active
RAW264.7 [7]
  Activity: Active
RAW264.7 [8]
  Activity: Active
RAW264.7 [9]
  Activity: Active
Homo sapiens [14]
  Ratio IC50: > 12.7
Homo sapiens [15]
  Ratio IC50: > 12.7

## COc1ccc(C(=O)/C=C/c2cc(Cl)c(O)cc2OC)cc1O
Dipeptidyl peptidase 4 [1]
  IC50: 9.09 µM
Dipeptidyl peptidase 4 [2]
  Ki: 23.1 µM

## COc1cc(O)c(Cl)cc1/C=C/C(=O)c1cccc(O)c1
Dipeptidyl peptidase 4 [1]
  IC50: 6.43 µM
Dipeptidyl peptidase 4 [2]
  Ki: 17.4 µM

## CCOc1ccc(C(=O)/C=C/c2cc(Cl)c(O)cc2OC)cc1
Dipeptidyl peptidase 4 [1]
  IC50: 21.2 µM

## O=c1ccc2ccc(O)cc2o1 [UMBELLIFERONE]
[3]
  half-life at 10 µM: 17.1 min

## C[C@@H]1C[C@H]2[C@@H]3CCC4=CC(=O)C=C[C@]4(C)[C@@]3(F)[C@@H](O)C[C@]2(C)[C@@]1(O)C(=O)CO
RAW264.7 [7]
  Activity: Active
RAW264.7 [8]
  Activity: Active
RAW264.7 [9]
  Activity: Active

## O=c1c(O)c(-c2ccc(O)cc2)oc2cc(O)cc(O)c12 [KAEMPFEROL]
Dipeptidyl peptidase 4 [1]
  IC50: 6.67 µM
Dipeptidyl peptidase 4 [2]
  Ki: 14.4 µM

## CCCCOc1ccc(C(=O)/C=C/c2cc(Br)c(O)cc2OC)cc1
Dipeptidyl peptidase 4 [1]
  IC50: > 100 µM

## COc1cc(O)c(Cl)cc1/C=C/C(=O)c1ccc(O)c(O)c1
Dipeptidyl peptidase 4 [1]
  IC50: 8.86 µM
Dipeptidyl peptidase 4 [2]
  Ki: 11.1 µM

## CCCOc1ccc(C(=O)/C=C/c2cc(Cl)c(OC)cc2OC)cc1
Dipeptidyl peptidase 4 [1]
  IC50: > 100 µM

## COc1ccc(C(=O)/C=C/c2cc(Br)c(O)cc2OC)cc1
Dipeptidyl peptidase 4 [1]
  IC50: 34 µM

## N[C@@H](CC(=O)N1CCn2c(nnc2C(F)(F)F)C1)Cc1cc(F)c(F)cc1F
RAW264.7 [7]
  Activity: Active
RAW264.7 [8]
  Activity: Active
RAW264.7 [9]
  Activity: Active

## COc1cc(O)c(Cl)cc1/C=C/C(=O)c1ccc(C(F)(F)F)cc1
Dipeptidyl peptidase 4 [1]
  IC50: 12.6 µM

## CCCOc1ccc(C(=O)/C=C/c2cc(Br)c(O)cc2OC)cc1
Dipeptidyl peptidase 4 [1]
  IC50: 26.5 µM

## COc1ccc(C(=O)/C=C/c2cc(Cl)c(OC)cc2OC)cc1
Dipeptidyl peptidase 4 [1]
  IC50: > 100 µM

## COc1cc(C(=O)/C=C/c2cc(Cl)c(O)cc2OC)ccc1O
Dipeptidyl peptidase 4 [1]
  IC50: 31.9 µM

## COc1cc(O)c(Cl)cc1/C=C/C(=O)c1ccc(O)c(C)c1
Dipeptidyl peptidase 4 [1]
  IC50: 15.1 µM

## COc1cc(OC)c(/C=C/C(=O)c2ccc(O)cc2)cc1Cl
Dipeptidyl peptidase 4 [1]
  IC50: 49.2 µM

## CCCOc1ccc(C(=O)/C=C/c2cc(Cl)c(O)cc2OC)cc1
Dipeptidyl peptidase 4 [1]
  IC50: 11.4 µM

## C=CC(C)(C)c1cc(/C=C/C(=O)c2ccc(O)cc2)c(OC)cc1O [LICOAGROCHACONE A]
Dipeptidyl peptidase 4 [1]
  IC50: 30.4 µM

## CCOc1ccc(C(=O)/C=C/c2cc(Br)c(O)cc2OC)cc1
Dipeptidyl peptidase 4 [1]
  IC50: 35 µM

## COc1cc(O)c(Br)cc1/C=C/C(=O)c1ccc(O)cc1
Dipeptidyl peptidase 4 [1]
  IC50: 16.4 µM

## COc1ccc(C(=O)/C=C/c2cc(Cl)c(O)cc2OC)cc1
Dipeptidyl peptidase 4 [1]
  IC50: 11 µM

## CCOc1ccc(C(=O)/C=C/c2cc(Cl)c(OC)cc2OC)cc1
Dipeptidyl peptidase 4 [1]
  IC50: > 100 µM

## CCCCOc1ccc(C(=O)/C=C/c2cc(Cl)c(O)cc2OC)cc1
Dipeptidyl peptidase 4 [1]
  IC50: 42.9 µM
